# From ChEMBL document CHEMBL4706683 (J Med Chem, 2021)
# Active and inactive are the calls of the source. The calls are words filed in the database; no cut-off is given here.
# Tests used:
# Plasmodium falciparum [1] = test: Antiplasmodial activity against synchronized ring stage Plasmodium falciparum 3D7 infected in human erythrocytes assessed as reduction in parasite growth incubated for 72 hrs by Giemsa staining based light microscopic method; format: functional, organism-based; details: 3D7, Erythrocyte
# Plasmodium falciparum [2] = test: Antiplasmodial activity against synchronized ring stage Plasmodium falciparum Dd2 infected in human erythrocytes assessed as reduction in parasite growth incubated for 72 hrs by Giemsa staining based light microscopic method; format: functional, organism-based; details: Dd2, Erythrocyte
# HepG2 = test: Cytotoxicity against human HepG2 cells assessed as reduction in cell viability incubated for 72 hrs by cell titer glo assay; format: cell-based; details: HepG2, 72 h
# HEK-293T = test: Cytotoxicity against human HEK293T cells assessed as reduction in cell viability incubated for 72 hrs by cell titer glo assay; format: cell-based
# Plasmodium falciparum [3] = test: Antiplasmodial activity against Plasmodium falciparum GB4 infected in human erythrocytes assessed as reduction in parasite growth incubated for 72 hrs by Giemsa staining based light microscopic method; format: functional, organism-based; details: GB4, Erythrocyte
# Plasmodium falciparum [4] = test: Antiplasmodial activity against Plasmodium falciparum C2A infected in human erythrocytes assessed as reduction in parasite growth incubated for 72 hrs by Giemsa staining based light microscopic method; format: functional, organism-based; details: Erythrocyte
# Plasmodium falciparum [5] = test: Antiplasmodial activity against artemisinin-resistant ring stage Plasmodium falciparum 6320 infected in human erythrocytes assessed as reduction in parasite growth incubated for 72 hrs by Giemsa staining based light microscopic method; format: functional, organism-based; details: Plasmodium falciparum, 6320, Erythrocyte
# [6] = Clearance in mouse liver microsomes incubated upto 45 mins in presence of NADPH by LC-MS/MS analysis; format: ADME, Microsome; details: read-out: CLH
# [7] = Toxicity in Balb/c mouse infected with blood stage Plasmodium yoelii assessed as animal death at 10 to 30 mg/kg, ip QD for 5 consecutive days and measured on day 6; format: organism-based; details: in vivo, 120 h, dose 10-30 mg/kg, time 5 day
# Plasmodium yoelii = test: Antiplasmodial activity against blood stage Plasmodium yoelii infected in Balb/c mouse assessed as reduction in parasitemia at 10 to 30 mg/kg, ip QD for 5 consecutive days and measured on day 20 by microscopic analysis; format: functional, organism-based; details: dose 10-30 mg/kg, time 5.0 day
# [8] = Toxicity in Balb/c mouse infected with sporozoites liver stage Plasmodium berghei assessed as animal death at 30 mg/kg, ip administered as single dose and measured after 2 hrs; format: organism-based; details: in vivo
# Plasmodium berghei = test: Antiplasmodial activity against liver stage Plasmodium berghei infected in Balb/c mouse assessed as reduction in parasitemia at 30 mg/kg, ip administered as single dose by microscopic analysis; format: functional, organism-based
# Plasmodium falciparum [9] = test: Antiplasmodial activity against synchronized ring stage Plasmodium falciparum 3D7 infected in human erythrocytes assessed as new ring stage formation at 10 times IC50 incubated for 12 hrs followed by compound washout and measured at 50 hrs by […] analysis; format: functional, organism-based; details: Erythrocyte
# Plasmodium falciparum [10] = test: Antiplasmodial activity against schizont stage Plasmodium falciparum 3D7 infected in human erythrocytes assessed as reduction in parasitemia at 10 times IC50 incubated for 12 hrs followed by compound washout and measured at 96 hrs post infection by […] analysis; format: functional, organism-based; details: Erythrocyte
# Plasmodium falciparum [11] = test: Inhibition of Plasmodium falciparum HDAC assessed as hyperacetylation of histone H3 at 20 times IC50 incubated for 4 hrs by Western blot analysis
# Plasmodium falciparum [12] = test: (§1) Antimalarial activity against synchronized schizont stage transgenic Plasmodium falciparum 3D7 with C-terminal 3xTY1-fused HDAC1 knockdown assessed as parasite growth inhibition pretreated with glucosamine followed by compound treatment and incubated for 4 hrs followed by compound washout for thrice and subsequent culturing for 68 hrs by SYBR Green 1 staining based analysis; format: functional, organism-based
# Plasmodium falciparum [13] = test: as §1, with “HDAC2” for “HDAC1”; format: functional, organism-based
# Plasmodium falciparum [14] = test: as §1, with “glmS-fused HDAC2” for “3xTY1-fused HDAC1”; format: functional, organism-based
# [15] = Inhibition of recombinant full length C-terminal His/FLAG-tagged Plasmodium falciparum HDAC1 expressed in baculovirus infected sf9 insect cells using fluorogenic […] as substrate preincubated for 1.5 hrs followed by substrate addition and measured after 30 mins by HDAC-GloI/II assay
# [16] = Cmax in Balb/c mouse at 5 mg/kg, ip administered as single dose measured upto 24 hrs by LC-MS/MS analysis; format: ADME, organism-based; design: route intraperitoneal, dose 5 mg/kg, time <=24; details: in vivo
# [17] = AUC (0 to infinity) in Balb/c mouse at 10 mg/kg, po administered as single dose measured upto 24 hrs by LC-MS/MS analysis; format: ADME, organism-based; design: route oral, dose 10 mg/kg, time <=24; details: in vivo
# [18] = Apparent clearance during terminal phase in Balb/c mouse at 5 mg/kg, ip administered as single dose measured upto 24 hrs by LC-MS/MS analysis; format: ADME, organism-based; details: Balb/c, in vivo, read-out: CLz/F (converted)
# [19] = Apparent volume of distribution during terminal phase in Balb/c mouse at 5 mg/kg, ip administered as single dose measured upto 24 hrs by LC-MS/MS analysis; format: ADME, organism-based; details: Balb/c, in vivo, read-out: Vz/F
# [20] = Apparent volume of distribution during terminal phase in Balb/c mouse at 10 mg/kg, po administered as single dose measured upto 24 hrs by LC-MS/MS analysis; format: ADME, organism-based; details: in vivo
# Plasmodium falciparum [21] = test: Antiplasmodial activity against artemisinin-resistant Plasmodium falciparum 6218 assessed as reduction in parasite survival at 700 nM incubated for 6 hrs followed by compound washout thrice and further cultured in compound free medium for 66 hrs by RSA; format: functional, organism-based
# Plasmodium falciparum [22] = test: Antiplasmodial activity against artemisinin-resistant Plasmodium falciparum 6320 assessed as reduction in parasite survival at 700 nM incubated for 6 hrs followed by compound washout thrice and further cultured in compound free medium for 66 hrs by RSA; format: functional, organism-based
# [23] = Selectivity index, ratio of IC50 for cytotoxicity against human HepG2 cells assessed to IC50 for antiplasmodial activity against synchronized ring stage Plasmodium falciparum 3D7 infected in human erythrocytes; format: toxicity, cell-based; details: read-out: Ratio IC50
# [24] = Selectivity index, ratio of IC50 for cytotoxicity against human HEK293T cells assessed to IC50 for antiplasmodial activity against synchronized ring stage Plasmodium falciparum 3D7 infected in human erythrocytes; format: toxicity, cell-based; details: read-out: Ratio IC50
# Plasmodium falciparum [25] = test: Antiplasmodial activity against Plasmodium falciparum CP286 infected in human erythrocytes assessed as reduction in parasite growth incubated for 72 hrs by Giemsa staining based light microscopic method; format: functional, organism-based; details: CP286, Erythrocyte
# Plasmodium falciparum [26] = test: Antiplasmodial activity against artemisinin-resistant Plasmodium falciparum 6218 infected in human erythrocytes assessed as reduction in parasite growth incubated for 72 hrs by Giemsa staining based light microscopic method; format: functional, organism-based; details: Plasmodium falciparum, 6218, Erythrocyte
# [27] = Half life in mouse liver microsomes incubated upto 45 mins in presence of NADPH by LC-MS/MS analysis; format: ADME, Microsome
# [28] = Toxicity in Balb/c mouse infected with blood stage Plasmodium yoelii assessed as recrudescence at 10 to 30 mg/kg, ip QD for 5 consecutive days and measured on day 20; format: organism-based; details: in vivo, 120 h, dose 10-30 mg/kg, time 5 day
compound,measurement,setting,value
Cl.Cn1cc(CNCC2CCN(c3ncc(C(=O)NO)cn3)CC2)c2ccccc21 [QUISINOSTAT HYDROCHLORIDE],IC50,Plasmodium falciparum [1],5.2 nM
same,IC50,Plasmodium falciparum [2],7.09 nM
same,IC50,HepG2,42 nM
same,IC50,HEK-293T,48 nM
same,IC50,Plasmodium falciparum [3],1.7 nM
same,IC50,Plasmodium falciparum [4],2.53 nM
same,IC50,Plasmodium falciparum [5],1.62 nM
same,CLint scaled,[6],410 mL/min/kg
same,Activity,[7],Toxic
same,Activity,Plasmodium yoelii,inactive
same,Activity,[8],Toxic
same,Activity,Plasmodium berghei,inactive
same,Activity,Plasmodium falciparum [9],Active
same,Activity,Plasmodium falciparum [10],Active
same,inhibition,Plasmodium falciparum [11],Active
same,IC50,Plasmodium falciparum [12],12.4 nM
same,IC50,Plasmodium falciparum [13],17.2 nM
same,IC50,Plasmodium falciparum [14],23.7 nM
same,IC50,[15],0.003 nM
same,Cmax,[16],88.7 ng/mL
same,AUC(0-inf),[17],5.98 ng·h/mL
same,CL/F,[18],462 mL/min/kg
same,Vd/F,[19],245 L/kg
same,Vz/F,[20],4172 L/kg
same,Activity,Plasmodium falciparum [21],Active
same,Activity,Plasmodium falciparum [22],Active
Cl.Cn1cc(CN2CCC3(CCN(c4ncc(C(=O)NO)cn4)CC3)C2)c2ccncc21,IC50,Plasmodium falciparum [1],3 nM
same,IC50,Plasmodium falciparum [2],5.6 nM
same,IC50,HepG2,792 nM
same,IC50,HEK-293T,537 nM
same,selectivity ratio,[23],265
same,selectivity ratio,[24],180
same,IC50,Plasmodium falciparum [3],4.4 nM
same,IC50,Plasmodium falciparum [4],4.9 nM
same,IC50,Plasmodium falciparum [25],5.7 nM
same,IC50,Plasmodium falciparum [26],3.8 nM
same,IC50,Plasmodium falciparum [5],3.9 nM
same,half-life,[27],3.06 h
same,CLint scaled,[6],29.7 mL/min/kg
same,Activity,[7],Non-Toxic
same,Activity,Plasmodium yoelii,inactive
same,Activity,[28],Toxic
